Data taken from PubChem BioAssay AID588634 (Broad Institute, 2011).
Activity calls are given as the source filed them.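 How the source made its calls: active means compounds whose fitted half-maximal toxic concentration is no more than twice their top tested dose; inconclusive means flat fit with 30 to 70% signal loss, or poor fit; inactive means the rest.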

Experiments:
[1] = system: NIH-3T3 fibroblast viability, Alamar Blue fluorescence, 48 h; test: mammalian cell viability loss – Alamar Blue, cherry-pick, cytotoxicity control for antifungal single agent project, dose response (AID 588634)
[2] = as above; details: NIH-3T3 fibroblast viability, Alamar Blue fluorescence, 48 h; at 26 µM (top of the series)

| SMILES | AC50 [1] | activity change, negative = toxicity [2] |
| --- | --- | --- |
| CCCCC(=O)NC(c1ccc(Cl)cc1)c1ccc2cccnc2c1O (stereo not drawn) | 1.09 µM | – |
| CCCCC(=O)NC(c1ccc(N(CC)CC)cc1)c1ccc2cccnc2c1O (stereo not drawn) | 1.25 µM | – |
| Cc1ccc(C(=O)c2coc3c2C(=O)C(=O)c2ccccc2-3)cc1 | 8.17 µM | – |
| O=c1ccc(N=Nc2ccccc2)ccc1O | 1.6 µM | – |
| Oc1c(CN2CCN(c3ccccc3)CC2)cc(Br)c2cccnc12 | 1.39 µM | – |
| COc1cccc(/C=N/Nc2ncnc3scc(-c4ccccc4)c23)c1O | 2.07 µM | – |
| Oc1c(C(c2ccc(Cl)cc2)N2CCCC2)cc(Cl)c2cccnc12 (stereo not drawn) | 1.47 µM | – |
| CCN(CC)S(=O)(=O)c1cc(OC)ccc1N=Nc1ccc(O)c2ncccc12 | 0.753 µM | – |
| Oc1c(C(Nc2nccs2)c2ccc(C(F)(F)F)cc2)ccc2cccnc12 (stereo not drawn) | 1.74 µM | – |
| Oc1c(C(Nc2nc3ccccc3s2)c2ccco2)ccc2cccnc12 (stereo not drawn) | 1.85 µM | – |
| C(C#CCCCCCCCCC[n+]1ccccc1)#CCCCCCCCCC[n+]1ccccc1 | – | -33.3% (inactive) |
| O=C(Oc1c(Cl)cc(Cl)c2cccnc12)c1cccs1 | 0.659 µM | – |
| O=[N+]([O-])c1ccc(O)c(/C=N/Nc2ccc(Cl)nn2)c1 | 1.6 µM | – |
| O=[N+]([O-])c1cc(CN2CCN(c3ccccc3)CC2)c(O)c2ncccc12 | 0.109 µM | – |
| COc1cccc(N=Nc2ccc3cccnc3c2O)c1 | 0.712 µM | – |
| Cc1cc(NC(c2ccc(Cl)cc2)c2ccc3cccnc3c2O)no1 (stereo not drawn) | 3.66 µM | – |
| C/C(=N\NC(=O)c1cc2ccccc2cc1O)c1ccccn1 | 1.04 µM | – |

| SMILES | AC50 [1] | activity change, negative = toxicity [2] |
| --- | --- | --- |
| O=C(N/N=C/c1c(O)ccc2ccccc12)c1cccc(C(F)(F)F)c1 | 4.34 µM | – |
| Oc1c(CN2CCN(c3ccc(F)cc3)CC2)cc(Cl)c2cccnc12 | 1.29 µM | – |
| CCCCC(=O)NC(c1ccco1)c1cc(Cl)c2cccnc2c1O (stereo not drawn) | 0.705 µM | – |
| CN1CCN(C(c2ccc(C(F)(F)F)cc2)c2ccc3cccnc3c2O)CC1 (stereo not drawn) | 0.852 µM | – |
| Oc1ccc(N=Nc2ccc3c(c2)OCCO3)c2cccnc12 | 3.14 µM | – |
| O=C(Oc1c(Cl)cc(Cl)c2cccnc12)c1ccco1 | 0.409 µM | – |
| O=Cc1ccc(O)c2ncccc12 | 0.913 µM | – |
| O=C(N/N=C/c1cc2c3c(c1O)CCCN3CCC2)c1ccccc1O | 6.37 µM | – |
| CCN1/C(=C/C=C/c2oc3ccc(-c4ccccc4)cc3[n+]2CC)Oc2ccc(-c3ccccc3)cc21 | – | 360% (inactive) |
| CN1CCN(C(c2ccc(C(F)(F)F)cc2)c2cc(Cl)c3cccnc3c2O)CC1 (stereo not drawn) | 1.96 µM | – |
| COc1cccc(N=Nc2ccc(O)c3ncccc23)c1 | 0.279 µM | – |
| O=Nc1c(-c2cccc([N+](=O)[O-])c2)nc2ncccn12 | 9.99 µM | – |
| Oc1ccc(N=Nc2ccc3c(c2)OCCO3)c2ncccc12 | 0.702 µM | – |
| COc1ccc(C)cc1N=Nc1ccc(O)c2ncccc12 | 0.303 µM | – |
| CCOC(=O)N1C(=O)C2(CCCCC2)N(c2ccc(C)cc2)C1=S | – | -0.005% (inactive) |
| CCOc1ccc(N=Nc2ccc(O)c3ncccc23)cc1 | 0.289 µM | – |
